The text below walks through data of US9328099B2, “Cyanomethylpyrazole carboxamides as janus kinase inhibitors” (Merck Sharp & Dohme Corp., priority 2011, dated 2016).

One assay concerns the target JAK1 (Homo sapiens (Human), UniProt P23458). Description: Jak Biochemical HTRF Assay, JAK1. To be noted: HTRF biochemical assay, GST-tagged catalytic domain; top concentration tested […]; read-out: JAK1 IC50. An excerpt:
(§1) Jak Biochemical HTRF Assay Protocol
(§2) Subsequent reagent additions employed an Agilent Bravo.
(In general: TR-FRET usually uses a lanthanide donor and a delayed reading to cut background.)

A further assay addresses JAK2 (Homo sapiens (Human), UniProt O60674). Description: Jak Biochemical HTRF Assay, JAK2. The following applies: HTRF biochemical assay, GST-tagged catalytic domain; top concentration tested […].
Source text: as §1, §2

Chain of JAK2 (O60674 849-1124): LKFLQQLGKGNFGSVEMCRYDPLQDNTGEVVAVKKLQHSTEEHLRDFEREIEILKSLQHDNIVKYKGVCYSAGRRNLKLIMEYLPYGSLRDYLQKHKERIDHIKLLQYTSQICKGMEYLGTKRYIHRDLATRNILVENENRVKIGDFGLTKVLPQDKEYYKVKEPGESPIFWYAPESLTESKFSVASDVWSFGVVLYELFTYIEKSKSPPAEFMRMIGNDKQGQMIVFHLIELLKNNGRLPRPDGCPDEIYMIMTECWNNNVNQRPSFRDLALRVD
Chain of JAK1 (P23458 875-1153): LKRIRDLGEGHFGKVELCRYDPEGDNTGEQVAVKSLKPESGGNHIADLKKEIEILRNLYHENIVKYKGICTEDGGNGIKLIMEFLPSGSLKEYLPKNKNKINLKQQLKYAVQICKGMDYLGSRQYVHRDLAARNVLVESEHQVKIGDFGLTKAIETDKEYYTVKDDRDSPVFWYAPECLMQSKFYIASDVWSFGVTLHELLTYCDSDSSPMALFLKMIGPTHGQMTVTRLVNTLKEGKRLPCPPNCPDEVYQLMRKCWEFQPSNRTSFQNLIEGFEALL

As to `N#CCC1(n2cc(C(N)=O)c(Nc3ccnc(F)c3)n2)CCC(NCc2ccccc2Cl)CC1` (stereo not drawn) [Example 41-10, Cis or trans 1-{4-[(2-chlorobenzyl)amino]-1-(cyanomethyl)cyclohexyl}-3-[(2-fluoropyridin-4-yl)amino]-1H-pyrazole-4-carboxamide], the figures for the IC50 at JAK1 and against JAK2 were 0.03 nM and 2 nM, respectively.

Turning to `N#CCC1(n2cc(C(N)=O)c(Nc3ccnc(F)c3)n2)CCC(NCc2ccccc2F)CC1` (stereo not drawn) [Example 41-11, Cis or trans 1-{1-(cyanomethyl)-4-[(2-fluorobenzyl)amino]cyclohexyl}-3-[(2-fluoropyridin-4-yl)amino]-1H-pyrazole-4-carboxamide], the results for the concentration for half-maximal inhibition (IC50) at JAK1 and against JAK2 were 0.08 nM and 2 nM, respectively.

With `N#CCC1(n2cc(C(N)=O)c(Nc3ccnc(F)c3)n2)CCC(NCc2ccc(F)cc2)CC1` (stereo not drawn) [Example 41-12, Cis or trans 1-{1-(cyanomethyl)-4-[(4-fluorobenzyl)amino]cyclohexyl}-3-[(2-fluoropyridin-4-yl)amino]-1H-pyrazole-4-carboxamide], the half-inhibitory concentration (IC50) (usually the concentration needed to halve the response being measured) was found to be 0.2 nM on JAK1 and 9 nM against JAK2.

For the compound `N#CCC1(n2cc(C(N)=O)c(Nc3ccnc(F)c3)n2)CCC(NCc2ccncc2)CC1` (stereo not drawn) [Example 41-13, Cis or trans 1-{1-(cyanomethyl)-4-[(pyridin-4-ylmethyl)amino]cyclohexyl}-3-[(2-fluoropyridin-4-yl)amino]-1H-pyrazole-4-carboxamide], the concentration for half-maximal inhibition (IC50) was found to be 86 nM on JAK1 and 1000 nM against JAK2.

For the compound `N#CCC1(n2cc(C(N)=O)c(Nc3ccnc(F)c3)n2)CCC(NCc2cccc(C#N)c2)CC1` (stereo not drawn) [Example 41-14, Cis or trans 1-{4-[(3-cyanobenzyl)amino]-1-(cyanomethyl)cyclohexyl}-3-[(2-fluoropyridin-4-yl)amino]-1H-pyrazole-4-carboxamide], the IC50 at JAK1 worked out at 45 nM; against JAK2, 1420 nM.

In the case of `N#CCC1(n2cc(C(N)=O)c(Nc3ccnc(F)c3)n2)CCC(NCc2ccc(Cl)cc2)CC1` (stereo not drawn) [Example 41-15, Cis or trans 1-{4-[(4-chlorobenzyl)amino]-1-(cyanomethyl)cyclohexyl}-3-[(2-fluoropyridin-4-yl)amino]-1H-pyrazole-4-carboxamide], the figures for the half-maximal inhibitory concentration (IC50) at JAK1 and against JAK2 were 0.1 nM and 2 nM, respectively.

In the case of `N#CCC1(n2cc(C(N)=O)c(Nc3ccnc(F)c3)n2)CCC(NCc2ccccc2Cl)CC1` (stereo not drawn) [Example 41-16, Cis or trans 1-{4-[(2-chlorobenzyl)amino]-1-(cyanomethyl)cyclohexyl}-3-[(2-fluoropyridin-4-yl)amino]-1H-pyrazole-4-carboxamide], the IC50 at JAK1 was 24 nM; against JAK2, 912 nM.

Take `N#CCC1(n2cc(C(N)=O)c(Nc3ccnc(F)c3)n2)CCC(NCc2ccccn2)CC1` (stereo not drawn) [Example 41-17, Cis or trans 1-{1-(cyanomethyl)-4-[(pyridin-2-ylmethyl)amino]cyclohexyl}-3-[(2-fluoropyridin-4-yl)amino]-1H-pyrazole-4-carboxamide]: the half-inhibitory concentration (IC50) is 46 nM at JAK1 and 1390 nM against JAK2.

`N#CCC1(n2cc(C(N)=O)c(Nc3ccnc(F)c3)n2)CCC(NCc2ccccc2)CC1` (stereo not drawn) [Example 41-18, Cis or trans 1-[4-(benzylamino)-1-(cyanomethyl)cyclohexyl]-3-[(2-fluoropyridin-4-yl)amino]-1H-pyrazole-4-carboxamide]: the IC50 at JAK1 turned out to be 0.1 nM; against JAK2 it was 10 nM.

On to `N#CCC1(n2cc(C(N)=O)c(Nc3ccnc(F)c3)n2)CCC(NCc2cccc(F)c2)CC1` (stereo not drawn) [Example 41-19, Cis or trans 1-{1-(cyanomethyl)-4-[(3-fluorobenzyl)amino]cyclohexyl}-3-[(2-fluoropyridin-4-yl)amino]-1H-pyrazole-4-carboxamide], for which the IC50 at JAK1 is 0.3 nM; at JAK2 it was 9 nM.
